Test results taken from ChEMBL document CHEMBL1201862, “PubChem BioAssay data set” (2004).
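Method: 48-hour compound exposure of cells in 96-well plates, five concentrations, linear interpolation of endpoints. At the GI50, growth is halved.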 Activity calls are given as the source filed them. Rule as the data show it: active = GI50 up to about 1.1 µM and inactive = higher.

Legend:
Assay in all cases: NCI tumour cell line growth inhibition, 48 h
786-0 = tested on: 786-0
A549 = tested on: A549
ACHN = tested on: ACHN
CAKI-1 = tested on: CAKI-1
CCRF-CEM = tested on: CCRF-CEM
COLO 205 = tested on: COLO 205
DLD-1 = tested on: DLD-1
DMS-273 = tested on: DMS-273
EKVX = tested on: EKVX
HCC 2998 = tested on: HCC 2998
HCT-116 = tested on: HCT-116
HCT-15 = tested on: HCT-15
HL-60 = tested on: HL-60
HOP-18 = tested on: HOP-18
HOP-62 = tested on: HOP-62
HT-29 = tested on: HT-29
IGROV-1 = tested on: IGROV-1
K562 = tested on: K562
KM-20L2 = tested on: KM-20L2
KM12 = tested on: KM12
LOX IMVI = tested on: LOX IMVI
LXFL 529 = tested on: LXFL 529
M14 = tested on: M14
MOLT-4 = tested on: MOLT-4
Malme-3M = tested on: Malme-3M
NCI-H226 = tested on: NCI-H226
NCI-H23 = tested on: NCI-H23
NCI-H460 = tested on: NCI-H460
NCI-H522 = tested on: NCI-H522
OVCAR-3 = tested on: OVCAR-3
OVCAR-4 = tested on: OVCAR-4
OVCAR-5 = tested on: OVCAR-5
OVCAR-8 = tested on: OVCAR-8
RPMI-8226 = tested on: RPMI-8226
RXF 393 = tested on: RXF 393
SF-268 = tested on: SF-268
SF-295 = tested on: SF-295
SK-MEL-28 = tested on: SK-MEL-28
SK-MEL-2 = tested on: SK-MEL-2
SK-OV-3 = tested on: SK-OV-3
SN12C = tested on: SN12C
SNB-19 = tested on: SNB-19
SNB-75 = tested on: SNB-75
SNB-78 = tested on: SNB-78
SR = tested on: SR
SW-620 = tested on: SW-620
TK-10 = tested on: TK-10
UACC-257 = tested on: UACC-257
UACC-62 = tested on: UACC-62
UO-31 = tested on: UO-31
XF498 = tested on: XF498
DMS-114 = tested on: DMS-114
M19-MEL = tested on: M19-MEL
SF-539 = tested on: SF-539
U-251 = tested on: U-251
A498 = tested on: A498
HOP-92 = tested on: HOP-92
SK-MEL-5 = tested on: SK-MEL-5

CCOC(=O)c1c(-c2ccccc2)c(C(OC(c2ccccc2)c2c(-c3ccccc3)c(C(=O)OCC)n3ccccc23)c2ccccc2)c2ccccn12 (stereo unspecified)
GI50 (786-0): > 100 µM (inactive)
GI50 (A549): > 100 µM (inactive)
GI50 (ACHN): > 100 µM (inactive)
GI50 (CAKI-1): > 100 µM (inactive)
GI50 (CCRF-CEM): > 100 µM (inactive)
GI50 (COLO 205): > 100 µM (inactive)
GI50 (DLD-1): > 100 µM (inactive)
GI50 (DMS-273): > 100 µM (inactive)
GI50 (EKVX): > 100 µM (inactive)
GI50 (HCC 2998): > 100 µM (inactive)
GI50 (HCT-116): > 100 µM (inactive)
GI50 (HCT-15): > 100 µM
GI50 (HL-60): > 100 µM (inactive)
GI50 (HOP-18): > 100 µM (inactive)
GI50 (HOP-62): > 100 µM (inactive)
GI50 (HT-29): > 100 µM (inactive)
GI50 (IGROV-1): > 100 µM (inactive)
GI50 (K562): > 100 µM (inactive)
GI50 (KM-20L2): > 100 µM (inactive)
GI50 (KM12): > 100 µM (inactive)
GI50 (LOX IMVI): > 100 µM (inactive)
GI50 (LXFL 529): > 100 µM (inactive)
GI50 (M14): > 100 µM (inactive)
GI50 (MOLT-4): > 100 µM (inactive)
GI50 (Malme-3M): > 100 µM (inactive)
GI50 (NCI-H226): > 100 µM (inactive)
GI50 (NCI-H23): > 100 µM (inactive)
GI50 (NCI-H460): > 100 µM (inactive)
GI50 (NCI-H522): > 100 µM (inactive)
GI50 (OVCAR-3): > 100 µM (inactive)
GI50 (OVCAR-4): > 100 µM (inactive)
GI50 (OVCAR-5): > 100 µM (inactive)
GI50 (OVCAR-8): > 100 µM (inactive)
GI50 (RPMI-8226): > 100 µM (inactive)
GI50 (RXF 393): > 100 µM (inactive)
GI50 (SF-268): > 100 µM (inactive)
GI50 (SF-295): > 100 µM (inactive)
GI50 (SK-MEL-28): > 100 µM (inactive)
GI50 (SK-MEL-2): > 100 µM (inactive)
GI50 (SK-OV-3): > 100 µM (inactive)
GI50 (SN12C): > 100 µM (inactive)
GI50 (SNB-19): > 100 µM (inactive)
GI50 (SNB-75): > 100 µM (inactive)
GI50 (SNB-78): > 100 µM (inactive)
GI50 (SR): > 100 µM (inactive)
GI50 (SW-620): > 100 µM (inactive)
GI50 (TK-10): > 100 µM (inactive)
GI50 (UACC-257): > 100 µM (inactive)
GI50 (UACC-62): > 100 µM (inactive)
GI50 (UO-31): > 100 µM (inactive)
GI50 (XF498): > 100 µM (inactive)

COc1cc(C2c3cc4c(cc3C(NCC(O)CO)C3COC(=O)[C@H]23)OCO4)cc(OC)c1OC (stereo partly specified)
GI50 (786-0): 0.578 µM (active)
GI50 (ACHN): 0.69 µM (active)
GI50 (CCRF-CEM): 0.407 µM (active)
GI50 (COLO 205): 0.184 µM (active)
GI50 (DLD-1): 0.531 µM (active)
GI50 (DMS-114): 0.0733 µM (active)
GI50 (DMS-273): 0.292 µM (active)
GI50 (EKVX): 0.4 µM (active)
GI50 (HCC 2998): 0.428 µM (active)
GI50 (HCT-15): 2.45 µM
GI50 (HL-60): 0.0785 µM (active)
GI50 (HOP-18): > 100 µM (inactive)
GI50 (HOP-62): 0.221 µM (active)
GI50 (HT-29): 0.34 µM (active)
GI50 (IGROV-1): > 100 µM (inactive)
GI50 (K562): 0.361 µM (active)
GI50 (KM-20L2): 0.143 µM (active)
GI50 (KM12): 0.217 µM (active)
GI50 (LOX IMVI): 0.146 µM (active)
GI50 (LXFL 529): 0.163 µM (active)
GI50 (M14): 0.533 µM (active)
GI50 (M19-MEL): 0.927 µM (active)
GI50 (MOLT-4): 0.272 µM (active)
GI50 (Malme-3M): > 100 µM (inactive)
GI50 (NCI-H226): 0.289 µM (active)
GI50 (NCI-H23): 0.267 µM (active)
GI50 (NCI-H460): 0.435 µM (active)
GI50 (NCI-H522): 0.0405 µM (active)
GI50 (OVCAR-5): > 100 µM (inactive)
GI50 (OVCAR-8): 0.429 µM (active)
GI50 (RPMI-8226): 0.321 µM (active)
GI50 (SF-268): 0.374 µM (active)
GI50 (SF-295): 0.213 µM (active)
GI50 (SF-539): 0.146 µM (active)
GI50 (SK-MEL-28): 0.617 µM (active)
GI50 (SK-OV-3): 0.422 µM (active)
GI50 (SN12C): 0.466 µM (active)
GI50 (SNB-19): 0.356 µM (active)
GI50 (SNB-75): 0.318 µM (active)
GI50 (SNB-78): 0.0944 µM (active)
GI50 (SR): 0.177 µM (active)
GI50 (SW-620): 0.51 µM (active)
GI50 (TK-10): > 100 µM (inactive)
GI50 (U-251): 0.236 µM (active)
GI50 (UACC-257): > 100 µM (inactive)
GI50 (UACC-62): 0.0973 µM (active)
GI50 (UO-31): 4.37 µM (inactive)
GI50 (XF498): 0.372 µM (active)

CC/C=C\C/C=C\C/C=C\CCCCCCCC(=O)OCC(O)CO (stereo unspecified)
GI50 (786-0): > 63.1 µM (inactive)
GI50 (A498): > 100 µM (inactive)
GI50 (A549): > 84.9 µM (inactive)
GI50 (ACHN): > 58.5 µM (inactive)
GI50 (CAKI-1): 38 µM (inactive)
GI50 (CCRF-CEM): > 47.8 µM (inactive)
GI50 (COLO 205): 70.5 µM (inactive)
GI50 (DLD-1): > 100 µM (inactive)
GI50 (DMS-114): 44.4 µM (inactive)
GI50 (DMS-273): > 100 µM (inactive)
GI50 (EKVX): > 88.7 µM (inactive)
GI50 (HCC 2998): > 100 µM (inactive)
GI50 (HCT-116): > 55.6 µM (inactive)
GI50 (HCT-15): > 63.4 µM
GI50 (HL-60): 20.7 µM (inactive)
GI50 (HOP-18): 52.2 µM (inactive)
GI50 (HOP-62): > 100 µM (inactive)
GI50 (HOP-92): > 68.1 µM (inactive)
GI50 (HT-29): > 68.5 µM (inactive)
GI50 (IGROV-1): > 92.3 µM (inactive)
GI50 (K562): 2.46 µM (inactive)
GI50 (KM-20L2): > 100 µM (inactive)
GI50 (KM12): > 56.9 µM (inactive)
GI50 (LOX IMVI): 39.9 µM (inactive)
GI50 (LXFL 529): > 56.9 µM (inactive)
GI50 (M14): > 61.7 µM (inactive)
GI50 (MOLT-4): > 46.2 µM (inactive)
GI50 (Malme-3M): > 100 µM (inactive)
GI50 (NCI-H226): > 100 µM (inactive)
GI50 (NCI-H23): > 74.5 µM (inactive)
GI50 (NCI-H460): > 69.3 µM (inactive)
GI50 (NCI-H522): 22 µM (inactive)
GI50 (OVCAR-3): 40.9 µM (inactive)
GI50 (OVCAR-4): > 84.3 µM (inactive)
GI50 (OVCAR-5): > 100 µM (inactive)
GI50 (OVCAR-8): > 67.8 µM (inactive)
GI50 (RPMI-8226): 43.4 µM (inactive)
GI50 (RXF 393): > 100 µM (inactive)
GI50 (SF-268): > 90.8 µM (inactive)
GI50 (SF-295): > 83.2 µM (inactive)
GI50 (SF-539): > 100 µM (inactive)
GI50 (SK-MEL-28): > 100 µM (inactive)
GI50 (SK-MEL-2): 97.9 µM (inactive)
GI50 (SK-MEL-5): > 59.2 µM (inactive)
GI50 (SK-OV-3): > 100 µM (inactive)
GI50 (SN12C): > 95.1 µM (inactive)
GI50 (SNB-19): > 100 µM (inactive)
GI50 (SNB-75): > 100 µM (inactive)
GI50 (SNB-78): > 58.7 µM (inactive)
GI50 (SR): 1 µM (active)
GI50 (SW-620): 58.2 µM (inactive)
GI50 (TK-10): > 100 µM (inactive)
GI50 (U-251): > 57.8 µM (inactive)
GI50 (UACC-257): > 86.1 µM (inactive)
GI50 (UACC-62): > 100 µM (inactive)
GI50 (UO-31): 16.4 µM (inactive)
GI50 (XF498): > 100 µM (inactive)
